Test results from patent US20230190769A1, “E PROTEIN CHANNEL BLOCKERS AND ORF3 INHIBITORS AS ANTI-COVID-19 AGENTS” (priority 2020, published 2023).
Read-outs that look alike come from different tables or passages of the source.

Key:
Type in all cases: cell-based
SARS-CoV-2 E protein [1] = target: T1, SARS-CoV-2 E protein (Severe acute respiratory syndrome coronavirus 2, UniProt P0DTC4)
SARS-CoV-2 3a protein = SARS-CoV-2 3a protein (Severe acute respiratory syndrome coronavirus 2, UniProt P0DTC3)
SARS-CoV-2 = details: for protection, effect on cell survival (FIG. 24 legend): individual 3a protein inhibitor at a concentration of 3 μM; for cell survival (in words): sole compound at 3, FIG. 24; for effectiveness of compounds on their own: sole compounds, protection of cells against viral death
SARS-CoV-2 E protein [2] = target: T1, SARS-CoV-2 E protein; remark: listed apart in the source
SARS-CoV-2 E protein [3] = target: T1, SARS-CoV-2 E protein; remark: listed apart in the source
[4] = 3000 molecules screened against E protein
[5] = 3,000 molecules screened against 3a protein

Sequence of SARS-CoV-2 3a protein (P0DTC3 whole entry, looked up): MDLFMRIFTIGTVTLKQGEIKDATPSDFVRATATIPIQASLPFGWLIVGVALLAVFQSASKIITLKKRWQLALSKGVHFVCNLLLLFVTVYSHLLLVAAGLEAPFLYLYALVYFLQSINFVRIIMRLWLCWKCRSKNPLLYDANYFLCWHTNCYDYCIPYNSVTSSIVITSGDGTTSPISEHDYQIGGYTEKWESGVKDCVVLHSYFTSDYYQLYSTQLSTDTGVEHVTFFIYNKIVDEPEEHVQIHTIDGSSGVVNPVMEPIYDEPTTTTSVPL
T1 sequence (P0DTC4 whole entry, looked up): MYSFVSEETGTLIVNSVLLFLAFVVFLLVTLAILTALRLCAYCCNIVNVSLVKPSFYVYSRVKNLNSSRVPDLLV

Row | Molecule | outcome of screen: SARS-CoV-2 E protein channel blocker (SARS-CoV-2 E protein [1]; [4]) | outcome of screen: SARS-CoV-2 3a protein inhibitor (SARS-CoV-2 3a protein; [5]) | also measured
1 | Nc1ncn([C@@H]2O[C@H](CO)[C@@H](O)[C@H]2O)c(=O)n1 [Azacytidine, 4-Amino-1-β-D-ribofuranosyl-s-triazin-2(1H)-one] | can be used as SARS-CoV-2 E protein channel blocker | – | –
2 | C1CNCCNCCNCCN1 [Cyclen, 1,4,7,10-Tetraazacyclododecane] | can be used as SARS-CoV-2 E protein channel blocker | – | –
3 | CCN(CC)CCN(Cc1ccc(-c2ccc(C(F)(F)F)cc2)cc1)C(=O)Cn1c(SCc2ccc(F)cc2)nc(=O)c2c1CCC2 [Darapladib, N-(2-Diethylaminoethyl)-2-[2-[(4-fluorophenyl)methylsulfanyl]-4-oxo-6,7-dihydro-5H-cyclopenta[d]pyrimidin-1-yl]-N-[[4-[4-(trifluoromethyl)phenyl]phenyl]methyl]acetamide] | – | can be used as SARS-CoV-2 3a protein inhibitor | protection, effect on cell survival (FIG. 24 legend) (SARS-CoV-2): near full protection; cell survival (in words) (SARS-CoV-2): full survival; effectiveness of compounds on their own (SARS-CoV-2): most effective
4 | O=c1[nH]c(=O)n(C2CC(O)C(CO)O2)cc1F (stereo not shown) [Floxuridine, 5-Fluoro-1-[4-hydroxy-5-(hydroxymethyl)tetrahydrofuran-2-yl]-1H-pyrimidine-2,4-dione] | – | can be used as SARS-CoV-2 3a protein inhibitor | –
5 | Cc1ncc(NC(=O)c2ccc(CN3CCN(C)CC3)c(C(F)(F)F)c2)cc1Nc1nccc(-c2cccnc2)n1 [Flumatinib, 4-[(4-methylpiperazin-1-yl)methyl]-N-[6-methyl-5-[(4-pyridin-3-ylpyrimidin-2-yl)amino]pyridin-3-yl]-3-(trifluoromethyl)benzamide] | – | can be used as SARS-CoV-2 3a protein inhibitor | protection, effect on cell survival (FIG. 24 legend) (SARS-CoV-2): near full protection; cell survival (in words) (SARS-CoV-2): near full survival; effectiveness of compounds on their own (SARS-CoV-2): most effective
6 | Cc1ccc(S(=O)(=O)NC(=O)NN2CC3CCCC3C2)cc1 (stereo not shown) [Gliclazide, 1-(3-azabicyclo(3.3.0)oct-3-yl)-3-(p-tolylsulfonyl)urea] | can be used as SARS-CoV-2 E protein channel blocker | – | bacterial growth in negative assay (SARS-CoV-2 E protein [2]): enhance bacterial growth; bacterial growth in positive assay (SARS-CoV-2 E protein [3]): inhibited growth
7 | C[C@H]1O[C@H](OC2[C@@H](O)[C@@H](O)C(O)[C@H](O)[C@H]2O)[C@@H](N)C[C@@H]1N=C(N)C(=O)O (stereo partly drawn) [Kasugamycin, 2-amino-2-[(2R,3 S,5 S,6R)-5-amino-2-methyl-6-[(2R,3 S,5S,6S)-2,3,4,5,6-pentahydroxycyclohexyl]oxyoxan-3-yl]iminoacetic acid] | can be used as SARS-CoV-2 E protein channel blocker | can be used as SARS-CoV-2 3a protein inhibitor | –
8 | CCNCCS(=O)(=O)NC[C@@]1(c2ccccc2)SC(NC(=O)C(C)(C)C)=NN1C(=O)C(C)(C)C [Litronesib, N-[(5R)-4-(2,2-dimethylpropanoyl)-5-[[2-(ethylamino)ethylsulfonylamino]methyl]-5-phenyl-1,3,4-thiadiazol-2-yl]-2,2-dimethylpropanamide] | – | can be used as SARS-CoV-2 3a protein inhibitor | –
9 | NCCCCN(Cc1nc2ccccc2[nH]1)[C@H]1CCCc2cccnc21 [Mavorixafor, N-(1H-benzimidazol-2-ylmethyl)-N-[(8S)-5,6,7,8-tetrahydroquinolin-8-yl]butane-1,4-diamine] | can be used as SARS-CoV-2 E protein channel blocker | – | –
10 | Cc1cc(C)c(NC(=O)CN(CC(=O)O)CC(=O)O)c(C)c1Br [Mebrofenin, 2-[[2-(3-bromo-2,4,6-trimethylanilino)-2-oxoethyl]-(carboxymethyl)amino]acetic acid] | can be used as SARS-CoV-2 E protein channel blocker | – | –
11 | CC12CC3CC(C)(C1)CC(N)(C3)C2 [Memantine, 1-amino-3,5-dimethyladamantane] | can be used as SARS-CoV-2 E protein channel blocker | – | bacterial growth in negative assay (SARS-CoV-2 E protein [2]): enhance bacterial growth; bacterial growth in positive assay (SARS-CoV-2 E protein [3]): inhibited growth
12 | N=C(N)c1ccc(OCCCCCOc2ccc(C(=N)N)cc2)cc1 [Pentamidine, 4,4′-[pentane-1,5-diylbis(oxy)]dibenzenecarboximidamide] | – | can be used as SARS-CoV-2 3a protein inhibitor | –
13 | c1cc(CN2CCCNCCNCCCNCC2)ccc1CN1CCCNCCNCCCNCC1 [Plerixafor, 1-[[4-(1,4,8,11-tetrazacyclotetradec-1-ylmethyl)phenyl]methyl]-1,4,8,11-tetrazacyclotetradecane] | – | – | outcome of screen: SARS-CoV-2 3a protein inhibitor (SARS-CoV-2 3a protein): can be used as SARS-CoV-2 3a protein inhibitor; outcome of screen: SARS-CoV-2 E protein channel blocker (SARS-CoV-2 E protein [1]): can be used as SARS-CoV-2 E protein channel blocker
14 | CCO[C@@H](Cc1ccc(OCCn2c(C)ccc2-c2ccc(SC)cc2)cc1)C(=O)O [Saroglitazar Magnesium, (αS)-α-Ethoxy-4-[2-[2-methyl-5-[4-(methylthio)phenyl]-1H-pyrrol-1-yl]ethoxy]benzenepropanoic Acid] | can be used as SARS-CoV-2 E protein channel blocker | – | –
15 | CN[C@@H]1[C@H](O)[C@H](NC)[C@H]2O[C@@]3(O)C(=O)C[C@@H](C)O[C@H]3O[C@@H]2[C@H]1O [Spectinomycin] | – | can be used as SARS-CoV-2 3a protein inhibitor | –
16 | Capreomycin | – | can be used as SARS-CoV-2 3a protein inhibitor | –
